PubChem BioAssay AID1259407 (Chemical Carcinogenesis Research Information System (CCRIS), 2018)
Calls of active or inactive are those of the source. How the calls were made is not given here.

Test system: CCRIS mutagenicity, Ames/micronucleus/aberration tests
Assay: CCRIS mutagenicity studies
[1] = Test System: AMES SALMONELLA TYPHIMURIUM, Strain/Indicator: TA97, Metabolic Activation: NONE, Method: PREINCUBATION
[2] = Test System: AMES SALMONELLA TYPHIMURIUM, Strain/Indicator: TA98, Metabolic Activation: NONE, Method: PREINCUBATION
[3] = Test System: AMES SALMONELLA TYPHIMURIUM, Strain/Indicator: TA100, Metabolic Activation: NONE, Method: PREINCUBATION
[4] = Test System: AMES SALMONELLA TYPHIMURIUM, Strain/Indicator: TA1535, Metabolic Activation: NONE, Method: PREINCUBATION
[5] = Test System: AMES SALMONELLA TYPHIMURIUM, Strain/Indicator: TA100, Metabolic Activation: NONE, Method: STANDARD PLATE

## CC(Cl)Cl
End Point: IN VIVO CHROMOSOMAL ABERRATIONS, Test System: BONE MARROW, Species: MOUSE, Strain/Sex: SWISS-WEBSTER/MALE, Route: INTRAPERITONEAL
  mutagenic call: active; positive (structural changes)
End Point: IN VIVO MICRONUCLEUS, Test System: BONE MARROW, Species: MOUSE, Strain/Sex: SWISS-WEBSTER/MALE, Route: INTRAPERITONEAL
  mutagenic call: active; positive (dose-dependent)
Test System: AMES SALMONELLA TYPHIMURIUM, Strain/Indicator: TA97, Metabolic Activation: HAMSTER, LIVER, S-9, AROCLOR 1254 (10%), Method: PREINCUBATION
  mutagenic call: inactive; negative
Test System: AMES SALMONELLA TYPHIMURIUM, Strain/Indicator: TA97, Metabolic Activation: HAMSTER, LIVER, S-9, AROCLOR 1254 (30%), Method: PREINCUBATION
  mutagenic call: inactive; negative
[1]
  mutagenic call: inactive; negative
Test System: AMES SALMONELLA TYPHIMURIUM, Strain/Indicator: TA97, Metabolic Activation: RAT, LIVER, S-9, AROCLOR 1254 (10%), Method: PREINCUBATION
  mutagenic call: inactive; negative
Test System: AMES SALMONELLA TYPHIMURIUM, Strain/Indicator: TA97, Metabolic Activation: RAT, LIVER, S-9, AROCLOR 1254 (30%), Method: PREINCUBATION
  mutagenic call: inactive; negative
Test System: AMES SALMONELLA TYPHIMURIUM, Strain/Indicator: TA98, Metabolic Activation: HAMSTER, LIVER, S-9, AROCLOR 1254 (10%), Method: PREINCUBATION
  mutagenic call: inactive; negative
Test System: AMES SALMONELLA TYPHIMURIUM, Strain/Indicator: TA98, Metabolic Activation: HAMSTER, LIVER, S-9, AROCLOR 1254 (30%), Method: PREINCUBATION
  mutagenic call: inactive; negative
[2]
  mutagenic call: inactive; negative
Test System: AMES SALMONELLA TYPHIMURIUM, Strain/Indicator: TA98, Metabolic Activation: RAT, LIVER, S-9, AROCLOR 1254 (10%), Method: PREINCUBATION
  mutagenic call: inactive; negative
Test System: AMES SALMONELLA TYPHIMURIUM, Strain/Indicator: TA98, Metabolic Activation: RAT, LIVER, S-9, AROCLOR 1254 (30%), Method: PREINCUBATION
  mutagenic call: inactive; negative
Test System: AMES SALMONELLA TYPHIMURIUM, Strain/Indicator: TA100, Metabolic Activation: HAMSTER, LIVER, S-9, AROCLOR 1254 (10%), Method: PREINCUBATION
  mutagenic call: inactive; negative
Test System: AMES SALMONELLA TYPHIMURIUM, Strain/Indicator: TA100, Metabolic Activation: HAMSTER, LIVER, S-9, AROCLOR 1254 (30%), Method: PREINCUBATION
  mutagenic call: inactive; negative
[3]
  mutagenic call: inactive; negative
Test System: AMES SALMONELLA TYPHIMURIUM, Strain/Indicator: TA100, Metabolic Activation: RAT, LIVER, S-9, AROCLOR 1254 (10%), Method: PREINCUBATION
  mutagenic call: inactive; negative
Test System: AMES SALMONELLA TYPHIMURIUM, Strain/Indicator: TA100, Metabolic Activation: RAT, LIVER, S-9, AROCLOR 1254 (30%), Method: PREINCUBATION
  mutagenic call: inactive; negative
Test System: AMES SALMONELLA TYPHIMURIUM, Strain/Indicator: TA1535, Metabolic Activation: HAMSTER, LIVER, S-9, AROCLOR 1254 (10%), Method: PREINCUBATION
  mutagenic call: inactive; negative
Test System: AMES SALMONELLA TYPHIMURIUM, Strain/Indicator: TA1535, Metabolic Activation: HAMSTER, LIVER, S-9, AROCLOR 1254 (30%), Method: PREINCUBATION
  mutagenic call: inactive; negative
[4]
  mutagenic call: inactive; negative
Test System: AMES SALMONELLA TYPHIMURIUM, Strain/Indicator: TA1535, Metabolic Activation: RAT, LIVER, S-9, AROCLOR 1254 (10%), Method: PREINCUBATION
  mutagenic call: inactive; negative
Test System: AMES SALMONELLA TYPHIMURIUM, Strain/Indicator: TA1535, Metabolic Activation: RAT, LIVER, S-9, AROCLOR 1254 (30%), Method: PREINCUBATION
  mutagenic call: inactive; negative
Test System: AMES SALMONELLA TYPHIMURIUM, Strain/Indicator: TA1537, Metabolic Activation: HAMSTER, LIVER, S-9, AROCLOR 1254 (30%), Method: PREINCUBATION
  mutagenic call: inactive; negative
Test System: AMES SALMONELLA TYPHIMURIUM, Strain/Indicator: TA1537, Metabolic Activation: NONE, Method: PREINCUBATION
  mutagenic call: inactive; negative
Test System: AMES SALMONELLA TYPHIMURIUM, Strain/Indicator: TA1537, Metabolic Activation: RAT, LIVER, S-9, AROCLOR 1254 (30%), Method: PREINCUBATION
  mutagenic call: inactive; negative

## Cc1nccnc1C
[2]
  mutagenic call: inactive; negative
Test System: AMES SALMONELLA TYPHIMURIUM, Strain/Indicator: TA98, Metabolic Activation: RAT, LIVER, S-9, AROCLOR 1254, Method: PREINCUBATION
  mutagenic call: inactive; negative
[3]
  mutagenic call: inactive; negative
Test System: AMES SALMONELLA TYPHIMURIUM, Strain/Indicator: TA100, Metabolic Activation: RAT, LIVER, S-9, AROCLOR 1254, Method: PREINCUBATION
  mutagenic call: inactive; negative
Test System: AMES SALMONELLA TYPHIMURIUM, Strain/Indicator: TA102, Metabolic Activation: NONE, Method: PREINCUBATION
  mutagenic call: inactive; negative
Test System: AMES SALMONELLA TYPHIMURIUM, Strain/Indicator: TA102, Metabolic Activation: RAT, LIVER, S-9, AROCLOR 1254, Method: PREINCUBATION
  mutagenic call: inactive; negative

## O=c1nc(NO)ccn1[C@@H]1O[C@H](CO)[C@@H](O)[C@H]1O
Test System: E. COLI, Strain/Indicator: WP2, Metabolic Activation: NONE, Method: STANDARD PLATE
  mutagenic call: active; positive
Test System: E. COLI, Strain/Indicator: WP2 UVRA, Metabolic Activation: NONE, Method: STANDARD PLATE
  mutagenic call: active; positive

## ClC[C@H]1CO1
[3]
  mutagenic call: active; positive
[5]
  mutagenic call: active; positive
Test System: AMES SALMONELLA TYPHIMURIUM, Strain/Indicator: TA100, Metabolic Activation: RAT, LIVER, S-9, PCB, Method: PREINCUBATION
  mutagenic call: active; positive

## [K+]
End Point: IN VIVO MICRONUCLEUS, Test System: BONE MARROW POLYCHROMATIC ERYTHROCYTES, Species: MOUSE, Strain/Sex: DDY/MALE, Route: IP
  mutagenic call: inactive; negative
End Point: In vitro chromosomal aberrations, Test System: Chinese hamster lung (CHL) cells, Metabolic Activation: None
  mutagenic call: active; positive (structural changes)
Test System: AMES SALMONELLA TYPHIMURIUM, Strain/Indicator: TA97, Metabolic Activation: HAMSTER, LIVER, S-9, AROCLOR 1254 (10 OR 30%), Method: PREINCUBATION
  mutagenic call: inactive; negative
[1]
  mutagenic call: inactive; negative
Test System: AMES SALMONELLA TYPHIMURIUM, Strain/Indicator: TA97, Metabolic Activation: RAT, LIVER, S-9, AROCLOR 1254 (10 OR 30%), Method: PREINCUBATION
  mutagenic call: inactive; negative
Test System: AMES SALMONELLA TYPHIMURIUM, Strain/Indicator: TA98, Metabolic Activation: HAMSTER, LIVER, S-9, AROCLOR 1254 (10 OR 30%), Method: PREINCUBATION
  mutagenic call: inactive; negative
[2]
  mutagenic call: inactive; negative
Test System: AMES SALMONELLA TYPHIMURIUM, Strain/Indicator: TA98, Metabolic Activation: RAT, LIVER, S-9, AROCLOR 1254 (10 OR 30%), Method: PREINCUBATION
  mutagenic call: inactive; negative
Test System: AMES SALMONELLA TYPHIMURIUM, Strain/Indicator: TA100, Metabolic Activation: HAMSTER, LIVER, S-9, AROCLOR 1254 (10 OR 30%), Method: PREINCUBATION
  mutagenic call: inactive; negative
[3]
  mutagenic call: inactive; negative
Test System: AMES SALMONELLA TYPHIMURIUM, Strain/Indicator: TA100, Metabolic Activation: RAT, LIVER, S-9, AROCLOR 1254 (10 OR 30%), Method: PREINCUBATION
  mutagenic call: inactive; negative
Test System: AMES SALMONELLA TYPHIMURIUM, Strain/Indicator: TA1535, Metabolic Activation: HAMSTER, LIVER, S-9, AROCLOR 1254 (10 OR 30%), Method: PREINCUBATION
  mutagenic call: inactive; negative
[4]
  mutagenic call: inactive; negative
Test System: AMES SALMONELLA TYPHIMURIUM, Strain/Indicator: TA1535, Metabolic Activation: RAT, LIVER, S-9, AROCLOR 1254 (10 OR 30%), Method: PREINCUBATION
  mutagenic call: inactive; negative

## Cc1nc2ccc3ccc4ccc(O)cc4c3c2o1
Test System: AMES SALMONELLA TYPHIMURIUM, Strain/Indicator: TA98, Metabolic Activation: RAT, LIVER, S-9, AROCLOR 1254, Method: STANDARD PLATE
  mutagenic call: active; positive
Test System: AMES SALMONELLA TYPHIMURIUM, Strain/Indicator: TA98, Metabolic Activation: RAT, LIVER, S-9, AROCLOR, Method: STANDARD PLATE
  mutagenic call: active; positive

## CCOP(=O)(Oc1ccc([N+](=O)[O-])cc1)c1ccccc1 (stereo unspecified)
Test System: AMES SALMONELLA TYPHIMURIUM, Strain/Indicator: TA98, Metabolic Activation: NONE, Method: STANDARD PLATE
  mutagenic call: active; positive
Test System: AMES SALMONELLA TYPHIMURIUM, Strain/Indicator: TA98, Metabolic Activation: RAT, LIVER, S-9, Method: STANDARD PLATE
  mutagenic call: inactive; negative
[5]
  mutagenic call: inactive; negative
Test System: AMES SALMONELLA TYPHIMURIUM, Strain/Indicator: TA100, Metabolic Activation: RAT, LIVER, S-9, Method: STANDARD PLATE
  mutagenic call: inactive; negative
